Values after ≈ are worked out from the molar mass of the structure shown.
What was measured:
Focal adhesion kinase 1 = Focal adhesion kinase 1 (Homo sapiens, UniProt Q05397)
Description: Inhibition of N-terminal NanoLuc-tagged full length FAK (unknown origin) transfected in HEK293T cells pre-incubated with compound for 2 hrs followed by Nano-Glo substrate addition by NanoBRET analysis

SRSF protein kinase 1 [1] = target: T1, SRSF protein kinase 1 (Homo sapiens, UniProt Q96SB4); experiment: Inhibition of C-terminal nLuc-fused SRPK1 (unknown origin) transfected in intact HEK293T cells by NanoBRET assay
[2] = target: Dual specificity protein kinase CLK1 (Homo sapiens, UniProt P49759); experiment: Inhibition of human CLK1 using myelin basic protein as substrate in presence of [gamma-33p]-ATP by radiometric hotspot kinase
Sequence of Dual specificity protein kinase CLK1 (P49759 whole entry): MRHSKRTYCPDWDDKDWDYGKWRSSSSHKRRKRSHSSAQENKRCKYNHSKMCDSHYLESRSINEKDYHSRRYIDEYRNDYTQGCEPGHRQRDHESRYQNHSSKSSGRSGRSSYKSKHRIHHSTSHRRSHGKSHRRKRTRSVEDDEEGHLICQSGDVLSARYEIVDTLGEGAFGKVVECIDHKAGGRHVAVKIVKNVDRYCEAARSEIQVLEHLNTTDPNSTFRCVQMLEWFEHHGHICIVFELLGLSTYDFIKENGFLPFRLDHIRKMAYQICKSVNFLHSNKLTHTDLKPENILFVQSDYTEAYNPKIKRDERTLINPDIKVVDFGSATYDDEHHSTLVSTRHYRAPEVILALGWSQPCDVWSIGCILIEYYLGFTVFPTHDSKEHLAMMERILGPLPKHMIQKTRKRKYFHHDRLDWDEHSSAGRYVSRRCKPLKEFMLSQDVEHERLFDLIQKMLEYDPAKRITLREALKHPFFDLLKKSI

[3] = target: Dual specificity protein kinase CLK2 (Homo sapiens, UniProt P49760); experiment: Inhibition of human CLK2 using myelin basic protein as substrate in presence of [gamma-33p]-ATP by radiometric hotspot kinase
Sequence of Dual specificity protein kinase CLK2 (P49760 whole entry): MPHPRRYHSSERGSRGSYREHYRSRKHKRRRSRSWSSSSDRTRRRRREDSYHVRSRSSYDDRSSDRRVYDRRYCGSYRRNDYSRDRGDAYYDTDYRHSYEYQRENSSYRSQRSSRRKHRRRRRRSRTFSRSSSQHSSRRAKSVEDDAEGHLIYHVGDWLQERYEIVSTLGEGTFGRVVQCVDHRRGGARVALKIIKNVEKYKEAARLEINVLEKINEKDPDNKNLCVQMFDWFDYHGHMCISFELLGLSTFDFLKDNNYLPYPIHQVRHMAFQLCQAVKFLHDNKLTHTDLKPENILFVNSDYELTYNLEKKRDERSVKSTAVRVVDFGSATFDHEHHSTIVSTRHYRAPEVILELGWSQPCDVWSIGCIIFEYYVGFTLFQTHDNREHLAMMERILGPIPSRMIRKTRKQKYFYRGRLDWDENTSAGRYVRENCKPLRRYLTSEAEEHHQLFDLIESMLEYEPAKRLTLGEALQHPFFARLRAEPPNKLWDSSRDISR

[4] = target: Dual specificity protein kinase CLK3 (Homo sapiens, UniProt P49761); experiment: Inhibition of human CLK3 using myelin basic protein as substrate in presence of [gamma-33p]-ATP by radiometric hotspot kinase
Sequence of Dual specificity protein kinase CLK3 (P49761 whole entry): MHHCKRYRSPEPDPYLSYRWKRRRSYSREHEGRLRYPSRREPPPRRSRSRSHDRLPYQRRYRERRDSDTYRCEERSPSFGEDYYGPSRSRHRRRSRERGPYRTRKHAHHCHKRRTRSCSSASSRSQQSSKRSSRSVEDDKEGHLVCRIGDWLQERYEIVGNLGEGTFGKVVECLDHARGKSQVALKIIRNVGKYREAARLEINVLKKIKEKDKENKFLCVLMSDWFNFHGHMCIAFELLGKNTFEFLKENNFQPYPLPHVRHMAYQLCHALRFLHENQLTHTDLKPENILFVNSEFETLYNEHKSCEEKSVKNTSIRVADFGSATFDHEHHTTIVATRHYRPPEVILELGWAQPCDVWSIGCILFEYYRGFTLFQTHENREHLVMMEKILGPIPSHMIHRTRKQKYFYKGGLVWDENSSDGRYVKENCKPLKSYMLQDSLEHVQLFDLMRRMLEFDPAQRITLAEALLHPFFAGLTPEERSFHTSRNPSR

[5] = target: Dual specificity protein kinase CLK4 (Homo sapiens, UniProt Q9HAZ1); experiment: Inhibition of human CLK4 using myelin basic protein as substrate in presence of [gamma-33p]-ATP by radiometric hotspot kinase
Sequence of Dual specificity protein kinase CLK4 (Q9HAZ1 whole entry): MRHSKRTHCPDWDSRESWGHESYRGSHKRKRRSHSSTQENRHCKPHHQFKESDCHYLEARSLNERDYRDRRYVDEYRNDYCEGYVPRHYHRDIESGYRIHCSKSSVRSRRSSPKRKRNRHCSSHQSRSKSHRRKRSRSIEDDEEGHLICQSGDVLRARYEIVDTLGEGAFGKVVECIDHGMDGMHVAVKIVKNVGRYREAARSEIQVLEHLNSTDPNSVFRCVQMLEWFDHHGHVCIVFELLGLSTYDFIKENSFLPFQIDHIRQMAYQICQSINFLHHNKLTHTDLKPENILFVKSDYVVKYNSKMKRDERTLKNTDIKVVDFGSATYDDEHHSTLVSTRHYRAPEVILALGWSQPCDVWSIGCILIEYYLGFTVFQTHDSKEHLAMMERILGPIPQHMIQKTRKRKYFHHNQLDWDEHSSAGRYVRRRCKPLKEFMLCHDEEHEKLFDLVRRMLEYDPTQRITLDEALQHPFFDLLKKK

SRSF protein kinase 1 [6] = target: T1, SRSF protein kinase 1
SRSF protein kinase 2 [7] = target: T2, SRSF protein kinase 2 (Homo sapiens, UniProt P78362)
Target sequence in this assay (P78362 whole entry): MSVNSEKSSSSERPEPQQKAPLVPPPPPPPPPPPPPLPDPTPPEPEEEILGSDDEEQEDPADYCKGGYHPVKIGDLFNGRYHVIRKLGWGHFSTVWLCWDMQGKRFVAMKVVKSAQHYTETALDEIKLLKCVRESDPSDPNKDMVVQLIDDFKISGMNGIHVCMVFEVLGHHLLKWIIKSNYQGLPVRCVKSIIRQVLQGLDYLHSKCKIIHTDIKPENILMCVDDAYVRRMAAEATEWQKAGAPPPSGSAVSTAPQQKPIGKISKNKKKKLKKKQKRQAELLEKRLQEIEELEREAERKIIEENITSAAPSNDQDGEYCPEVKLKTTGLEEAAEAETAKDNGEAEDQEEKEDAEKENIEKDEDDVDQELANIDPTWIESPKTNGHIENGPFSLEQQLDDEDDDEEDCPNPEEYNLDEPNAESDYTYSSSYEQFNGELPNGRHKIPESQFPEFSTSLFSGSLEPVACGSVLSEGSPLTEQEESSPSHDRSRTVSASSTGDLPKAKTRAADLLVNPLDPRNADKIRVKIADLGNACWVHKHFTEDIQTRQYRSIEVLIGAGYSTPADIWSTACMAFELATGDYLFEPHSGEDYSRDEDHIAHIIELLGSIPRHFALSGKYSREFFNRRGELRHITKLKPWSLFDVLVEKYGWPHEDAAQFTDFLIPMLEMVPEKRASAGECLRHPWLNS

SRSF protein kinase 3 [8] = target: T3, SRSF protein kinase 3 (Homo sapiens, UniProt Q9UPE1)
T3 sequence (Q9UPE1 whole entry): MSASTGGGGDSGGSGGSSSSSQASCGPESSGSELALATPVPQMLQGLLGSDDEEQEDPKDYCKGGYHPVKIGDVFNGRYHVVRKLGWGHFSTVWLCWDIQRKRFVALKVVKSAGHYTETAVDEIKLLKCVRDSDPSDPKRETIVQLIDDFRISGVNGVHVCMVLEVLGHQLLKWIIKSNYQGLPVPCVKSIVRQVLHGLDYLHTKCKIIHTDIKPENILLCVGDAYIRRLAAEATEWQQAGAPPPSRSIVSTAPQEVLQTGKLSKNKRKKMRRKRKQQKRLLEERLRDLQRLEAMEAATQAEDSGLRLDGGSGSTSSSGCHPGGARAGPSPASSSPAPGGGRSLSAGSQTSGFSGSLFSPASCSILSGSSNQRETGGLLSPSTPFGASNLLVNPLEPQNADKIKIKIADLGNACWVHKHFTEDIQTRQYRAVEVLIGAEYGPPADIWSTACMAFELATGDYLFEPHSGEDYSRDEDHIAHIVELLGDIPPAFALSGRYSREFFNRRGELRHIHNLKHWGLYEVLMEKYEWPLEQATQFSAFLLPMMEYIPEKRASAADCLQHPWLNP
Description: Inhibition of N-terminal nLuc-fused SRPK3 (unknown origin) transfected in intact HEK293T cells by NanoBRET assay

SRSF protein kinase 2 [9] = target: T2, SRSF protein kinase 2; remark: listed apart in the source
Target sequence in this assay (P78362 whole entry): as the sequence (P78362 whole entry) above
Description: Inhibition of N-terminal nLuc-fused SRPK2 (unknown origin) transfected in lysed HEK293T cells by NanoBRET assay

SRSF protein kinase 3 [10] = target: T3, SRSF protein kinase 3; remark: listed apart in the source
[11] = target: Dual specificity tyrosine-phosphorylation-regulated kinase 1A (Homo sapiens, UniProt Q13627)
[12] = target: Dual specificity tyrosine-phosphorylation-regulated kinase 1B (Homo sapiens, UniProt Q9Y463)
Sequence of Dual specificity tyrosine-phosphorylation-regulated kinase 1B (Q9Y463 whole entry): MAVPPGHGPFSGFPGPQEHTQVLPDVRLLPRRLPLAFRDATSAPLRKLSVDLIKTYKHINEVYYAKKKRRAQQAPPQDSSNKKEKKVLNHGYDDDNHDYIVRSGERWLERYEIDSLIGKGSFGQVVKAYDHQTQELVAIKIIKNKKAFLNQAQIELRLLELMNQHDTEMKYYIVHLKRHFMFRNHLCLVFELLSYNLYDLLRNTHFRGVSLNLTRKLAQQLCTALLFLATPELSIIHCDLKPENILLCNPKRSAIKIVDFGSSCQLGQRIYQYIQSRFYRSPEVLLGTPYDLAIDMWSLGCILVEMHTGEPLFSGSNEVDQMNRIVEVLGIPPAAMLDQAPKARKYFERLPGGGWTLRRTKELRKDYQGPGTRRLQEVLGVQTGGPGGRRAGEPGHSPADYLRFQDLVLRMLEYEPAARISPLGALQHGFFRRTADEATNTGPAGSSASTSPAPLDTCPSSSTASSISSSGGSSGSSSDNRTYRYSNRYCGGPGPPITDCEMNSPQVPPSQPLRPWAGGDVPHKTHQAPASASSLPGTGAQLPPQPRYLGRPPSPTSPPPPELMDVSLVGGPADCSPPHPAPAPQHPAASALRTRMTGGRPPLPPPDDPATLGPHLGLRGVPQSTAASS

[13] = target: T4, Dual specificity tyrosine-phosphorylation-regulated kinase 2 (Homo sapiens, UniProt Q92630)
T4 sequence (Q92630 whole entry): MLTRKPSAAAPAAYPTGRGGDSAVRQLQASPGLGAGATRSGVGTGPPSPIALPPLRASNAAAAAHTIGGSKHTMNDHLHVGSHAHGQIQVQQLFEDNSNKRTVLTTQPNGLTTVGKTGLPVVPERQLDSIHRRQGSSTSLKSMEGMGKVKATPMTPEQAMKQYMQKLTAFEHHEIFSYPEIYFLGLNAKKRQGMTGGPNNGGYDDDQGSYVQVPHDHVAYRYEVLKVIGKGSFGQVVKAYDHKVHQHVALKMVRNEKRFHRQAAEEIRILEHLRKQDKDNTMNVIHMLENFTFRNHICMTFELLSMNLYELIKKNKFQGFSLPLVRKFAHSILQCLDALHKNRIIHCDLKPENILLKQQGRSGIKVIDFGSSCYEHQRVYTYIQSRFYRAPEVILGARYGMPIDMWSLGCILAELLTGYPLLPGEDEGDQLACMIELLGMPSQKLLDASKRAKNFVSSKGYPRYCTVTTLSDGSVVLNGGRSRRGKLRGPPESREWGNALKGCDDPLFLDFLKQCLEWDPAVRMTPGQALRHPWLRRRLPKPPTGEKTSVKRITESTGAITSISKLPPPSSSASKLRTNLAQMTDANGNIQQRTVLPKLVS

[14] = target: T5, Dual specificity tyrosine-phosphorylation-regulated kinase 3 (Homo sapiens, UniProt O43781)
T5 sequence (O43781 whole entry): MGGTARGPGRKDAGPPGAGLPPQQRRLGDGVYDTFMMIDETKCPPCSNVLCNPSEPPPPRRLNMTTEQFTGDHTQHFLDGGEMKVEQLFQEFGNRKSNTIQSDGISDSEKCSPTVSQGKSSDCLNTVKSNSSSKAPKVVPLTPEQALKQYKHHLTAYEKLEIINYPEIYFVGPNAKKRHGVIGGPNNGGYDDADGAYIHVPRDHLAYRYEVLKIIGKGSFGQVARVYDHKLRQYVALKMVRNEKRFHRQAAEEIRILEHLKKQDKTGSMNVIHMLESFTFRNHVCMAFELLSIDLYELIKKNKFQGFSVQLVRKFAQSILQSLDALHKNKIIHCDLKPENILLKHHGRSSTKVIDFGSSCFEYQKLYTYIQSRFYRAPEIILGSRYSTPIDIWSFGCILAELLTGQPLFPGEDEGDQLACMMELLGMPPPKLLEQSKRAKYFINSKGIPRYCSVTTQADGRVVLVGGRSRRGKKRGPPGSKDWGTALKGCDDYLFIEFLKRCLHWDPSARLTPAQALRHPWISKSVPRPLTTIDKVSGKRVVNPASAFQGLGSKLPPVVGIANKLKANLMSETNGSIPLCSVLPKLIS

[15] = Thermodynamic solubility of the compound in phosphate buffer at pH 7.4
[16] = Metabolic stability in human liver microsomes assessed as intrinsic clearance
[17] = Metabolic stability in mouse liver microsomes assessed as intrinsic clearance
[18] = Clearance in human hepatocytes measured per million of cells
[19] = Clearance in mouse hepatocytes measured per million of cells
[20] = Apparent permeability in human Caco-2 cells
SRSF protein kinase 1 [21] = target: T1, SRSF protein kinase 1; settings: time 10.0 min
SRSF protein kinase 2 [22] = target: T2, SRSF protein kinase 2; settings: time 10.0 min
Target sequence in this assay (P78362 whole entry, looked up): as the sequence (P78362 whole entry) above

SRSF protein kinase 3 [23] = target: T3, SRSF protein kinase 3; settings: time 10.0 min
physchem = settings: phosphate buffer, pH 7.4
[24] = Efflux ratio of apparent permeability in human Caco-2 cells

T1 sequence (Q96SB4 whole entry, the tested form may be a part): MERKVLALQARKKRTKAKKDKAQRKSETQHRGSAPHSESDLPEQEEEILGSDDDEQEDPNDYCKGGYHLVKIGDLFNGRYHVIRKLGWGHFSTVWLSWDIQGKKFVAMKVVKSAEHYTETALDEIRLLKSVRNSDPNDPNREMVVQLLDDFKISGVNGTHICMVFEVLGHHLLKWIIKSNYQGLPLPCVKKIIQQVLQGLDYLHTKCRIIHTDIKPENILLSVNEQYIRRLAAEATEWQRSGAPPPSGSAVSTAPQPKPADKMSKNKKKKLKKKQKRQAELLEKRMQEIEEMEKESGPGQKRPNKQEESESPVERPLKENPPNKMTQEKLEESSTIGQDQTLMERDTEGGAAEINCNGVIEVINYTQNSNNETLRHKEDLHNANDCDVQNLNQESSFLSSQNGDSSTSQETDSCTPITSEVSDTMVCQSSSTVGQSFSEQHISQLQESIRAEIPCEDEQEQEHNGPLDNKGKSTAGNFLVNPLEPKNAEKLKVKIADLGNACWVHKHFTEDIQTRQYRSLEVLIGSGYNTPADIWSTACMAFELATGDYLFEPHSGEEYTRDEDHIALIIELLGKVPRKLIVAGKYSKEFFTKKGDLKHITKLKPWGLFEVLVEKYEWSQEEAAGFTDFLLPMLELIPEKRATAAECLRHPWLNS

| IC50 [2] | IC50 [3] | IC50 [4] | IC50 [5] | IC50 (SRSF protein kinase 1 [6]) | IC50 (SRSF protein kinase 2 [7]) | IC50 (SRSF protein kinase 3 [10]) | IC50 [11] | IC50 [12] | IC50 [13] | IC50 [14] | SMILES | other results |
| --- | --- | --- | --- | --- | --- | --- | --- | --- | --- | --- | --- | --- |
|  |  |  |  |  |  |  |  |  |  |  | c1ccc(-c2nn[nH]n2)nc1 | EC50 (Focal adhesion kinase 1): 253000 nM |
|  |  |  |  |  |  |  |  |  |  |  | c1ccc(-c2nc3ccccc3[nH]2)nc1 | EC50 (Focal adhesion kinase 1): 103000 nM |
| > 10000 nM | > 10000 nM | > 10000 nM | > 10000 nM | 83 nM | 1510 nM | 27 nM | > 10000 nM | > 10000 nM | > 10000 nM | > 10000 nM | O=C(Nc1cc(C(F)(F)F)ccc1N1CCCCC1)c1ccncc1 | EC50 (SRSF protein kinase 1 [1]): 2360 nM; EC50 (SRSF protein kinase 3 [8]): 398 nM; EC50 (SRSF protein kinase 2 [9]): 2560 nM |
| 839 nM | 5700 nM | > 10000 nM | 266 nM |  | 256 nM | 166 nM | 1580 nM | 1840 nM | > 10000 nM | > 10000 nM | O=C(Nc1cc(C(F)(F)F)ccc1N1CCN(Cc2ccccn2)CC1)c1ccc(-c2ccncc2)o1 | EC50 (SRSF protein kinase 3 [8]): 6150 nM; EC50 (SRSF protein kinase 2 [9]): 648 nM |
| > 10000 nM | > 10000 nM | > 10000 nM | > 10000 nM |  |  |  | > 10000 nM | > 10000 nM | > 10000 nM | > 10000 nM | CN(c1ncccc1CNc1ccnc(-c2nc3c(F)c(Cl)ccc3[nH]2)n1)S(C)(=O)=O | solubility thermodynamic [15]: < 1 µg/mL; CLint [16]: 504 µL/min/mg; CLint [17]: 196 µL/min/mg; hepatocyte CLint [18]: 51 µL/min/1e6 cells; hepatocyte CLint [19]: 354 µL/min/1e6 cells; Papp [20]: 7.2 ×10⁻⁶ cm/s; ΔTm (SRSF protein kinase 1 [21]): 9.1 °C; ΔTm (SRSF protein kinase 2 [22]): 4 °C; ΔTm (SRSF protein kinase 3 [23]): 9.6 °C; solubility kinetic at 2 h (physchem): < 2 µM |
|  |  |  |  | > 10000 nM | > 10000 nM |  |  |  |  |  | CN(c1ncccc1CNc1ccnc(-c2cc3cc(Cl)ccc3[nH]2)n1)S(C)(=O)=O | solubility thermodynamic [15]: < 1 µg/mL; CLint [16]: 771 µL/min/mg; CLint [17]: 784 µL/min/mg; hepatocyte CLint [18]: 156 µL/min/1e6 cells; hepatocyte CLint [19]: 1100 µL/min/1e6 cells; Papp [20]: 2 ×10⁻⁶ cm/s; efflux ratio [24]: 1.6; solubility kinetic at 2 h (physchem): 2.3 µM (≈ 1.02 µg/mL) |

| SMILES | IC50 [2] | IC50 [3] | IC50 [4] | IC50 [5] | IC50 (SRSF protein kinase 1 [6]) | IC50 (SRSF protein kinase 2 [7]) | IC50 (SRSF protein kinase 3 [10]) | IC50 [11] | IC50 [12] | IC50 [13] | IC50 [14] | other results |
| --- | --- | --- | --- | --- | --- | --- | --- | --- | --- | --- | --- | --- |
| CCc1cc2c(cc1-c1cccc(S(=O)(=O)F)c1)C(C)(C)c1[nH]c3cc(C#N)ccc3c1C2=O |  | 920 nM | > 30000 nM | 159 nM | 1.68 nM | 2.54 nM | 4.81 nM | 225 nM | 293 nM | 5720 nM | 6780 nM |  |

Source: ChEMBL document CHEMBL5321194 (J Med Chem, 2023)
